Measured values published in patent publication US20230271950A1, “ANTIBACTERIAL PICOLINAMIDE COMPOUNDS” (University of Notre Dame Du Lac, priority 2020, published 2023).
In brackets after ≈: the same amount, converted by molar mass. Like-named read-outs stand apart in the source and are kept apart here.

Legend:
[1] = system: Fecal microbiota preparation; experiment: MIC against fecal microbiota preparation; format: cell-based; conditions: Fecal microbiota preparation from OpenBiome tested at 1000-fold dilution
Description: Minimum inhibitory concentrations (MIC). MICs for C. difficile strains and the common gut bacteria were determined using broth microdilution techniques as reported earlier using brucella broth supplemented with hemin and vitamin K or supplemented BHIS broth. Lactobacillus MRS broth was used for lactobacillus strains. Sodium lactate was supplemented in the media for Veillonella sp. […] All incubations, unless specified otherwise, were carried out at 24 h or 48 h at 37° C. in an anaerobic chamber (Whitley DG250 workstation, Microbiology International, Frederick, Md.). Corynebacterium and Lactobacillus species were incubated aerobically.

C. difficile = experiment: MIC by broth microdilution against C. difficile strains; format: cell-based, Clostridioides difficile

## CCc1c(Cl)c(O)c(Cl)c(O)c1C(=O)O[C@H]1[C@H](O)[C@H](OC)[C@H](OC/C2=C\C=C\C[C@H](O)/C(C)=C/[C@H](CC)[C@@H](O[C@@H]3OC(C)(C)[C@@H](OC(=O)C(C)C)[C@H](O)[C@@H]3O)/C(C)=C/C(C)=C/C[C@@H]([C@@H](C)O)OC2=O)O[C@@H]1C [FDX, fidaxomicin, reference compound]
[1]
  MIC: > 128 µg/mL
C. difficile; C. difficile ATCC43255 relative to MRSA NRS70
  selectivity toward C. difficile relative to MRSA: 128 fold
C. difficile; C. difficile BAA-1801, Table 9
  MIC: 0.125 µg/mL (≈ 0.118 µM)
C. difficile; C. difficile HM-745, Table 9
  MIC: 0.125 µg/mL (≈ 0.118 µM)
C. difficile; C. difficile NR49318, Table 9
  MIC: 0.125 µg/mL (≈ 0.118 µM)
C. difficile; C. difficile NR-13431, Table 9
  MIC: 0.125 µg/mL (≈ 0.118 µM)
C. difficile; C. difficile NR-13433, Table 9
  MIC: 0.125 µg/mL (≈ 0.118 µM)
C. difficile; C. difficile NR-13436, Table 9
  MIC: 0.125 µg/mL (≈ 0.118 µM)
C. difficile; C. difficile NR-32883, Table 9
  MIC: 0.125 µg/mL (≈ 0.118 µM)
C. difficile; C. difficile NR-32887, Table 9
  MIC: 0.125 µg/mL (≈ 0.118 µM)
C. difficile; C. difficile NR-49280, Table 9
  MIC: 0.125 µg/mL (≈ 0.118 µM)
C. difficile; C. difficile NR-49298, Table 9
  MIC: 0.125 µg/mL (≈ 0.118 µM)
C. difficile; C. difficile NR-49299, Table 9
  MIC: 0.125 µg/mL (≈ 0.118 µM)
C. difficile; C. difficile NR-49308, Table 9
  MIC: 0.125 µg/mL (≈ 0.118 µM)
C. difficile; C. difficile NR-49312, Table 9
  MIC: 0.125 µg/mL (≈ 0.118 µM)
C. difficile; C. difficile NR-49316, Table 9
  MIC: 0.125 µg/mL (≈ 0.118 µM)
C. difficile; C. difficile NR-49319, Table 9
  MIC: 0.125 µg/mL (≈ 0.118 µM)
C. difficile; C. difficile NR-49320, Table 9
  MIC: 0.125 µg/mL (≈ 0.118 µM)
C. difficile; C. difficile NR-49321, Table 9
  MIC: 0.125 µg/mL (≈ 0.118 µM)
C. difficile; Clostridioides difficile
  MIC: 0.125 µg/mL (≈ 0.118 µM)
C. difficile; Clostridioides difficile, ATCC43255, C. difficile ATCC43255 (TcdA+, TcdB+), Table 1, read-out: MIC
  MIC: 0.06 µg/mL (≈ 0.0567 µM)
C. difficile; Clostridioides difficile, ATCC43255, C. difficile ATCC43255, Table 7, read-out: MIC
  MIC: 0.0625 µg/mL (≈ 0.0591 µM)
C. difficile; Clostridioides difficile, ATCC43255, C. difficile ATCC43255, Table 9, read-out: MIC
  MIC: 0.06 µg/mL (≈ 0.0567 µM)
C. difficile; Clostridioides difficile, ATCC43598, C. difficile ATCC43598, Table 7, read-out: MIC
  MIC: 0.01 µg/mL (≈ 0.00945 µM)
C. difficile; Clostridioides difficile, ATCC43598, C. difficile ATCC43598, Table 9, read-out: MIC
  MIC: 0.01 µg/mL (≈ 0.00945 µM)
C. difficile; Clostridioides difficile, BAA1801
  MIC: 0.125 µg/mL (≈ 0.118 µM)
C. difficile; Clostridioides difficile, BAA1803, C. difficile BAA-1803, Table 7, read-out: MIC
  MIC: 1 µg/mL (≈ 0.945 µM)
C. difficile; Clostridioides difficile, BAA1803, C. difficile BAA-1803, Table 9, read-out: MIC
  MIC: 1 µg/mL (≈ 0.945 µM)
C. difficile; Clostridioides difficile, BAA1804
  MIC: 0.125 µg/mL (≈ 0.118 µM)
C. difficile; Clostridioides difficile, BAA1804, C. difficile BAA-1804, Table 7, read-out: MIC
  MIC: < 0.25 µg/mL
C. difficile; Clostridioides difficile, BAA1812, C. difficile BAA-1812, Table 7, read-out: MIC
  MIC: 0.015 µg/mL (≈ 0.0142 µM)
C. difficile; Clostridioides difficile, BAA1812, C. difficile BAA-1812, Table 9, read-out: MIC
  MIC: 0.015 µg/mL (≈ 0.0142 µM)
C. difficile; Clostridioides difficile, BAA1814, C. difficile BAA-1814, Table 7, read-out: MIC
  MIC: 0.03 µg/mL (≈ 0.0284 µM)
C. difficile; Clostridioides difficile, BAA1814, C. difficile BAA-1814, Table 9, read-out: MIC
  MIC: 0.03 µg/mL (≈ 0.0284 µM)
C. difficile; Clostridioides difficile, BAA1870, C. difficile BAA-1870 (NAP1, ribotype 27), Table 1, read-out: MIC
  MIC: 0.25 µg/mL (≈ 0.236 µM)
C. difficile; Clostridioides difficile, BAA1870, C. difficile BAA-1870, Table 7, read-out: MIC
  MIC: 0.25 µg/mL (≈ 0.236 µM)
C. difficile; Clostridioides difficile, BAA1870, C. difficile BAA-1870, Table 9, read-out: MIC
  MIC: 0.25 µg/mL (≈ 0.236 µM)
C. difficile; Clostridioides difficile, C. difficile 23691 (VR, vancomycin-resistant), Table 7, read-out: MIC
  MIC: 4 µg/mL (≈ 3.78 µM)
C. difficile; Clostridioides difficile, C. difficile 23691, clinical isolate resistant to VAN, Table 1, read-out: MIC
  MIC: 4 µg/mL (≈ 3.78 µM)
C. difficile; Clostridioides difficile, C. difficile 23691, Table 9, read-out: MIC
  MIC: 4 µg/mL (≈ 3.78 µM)
C. difficile; Clostridioides difficile, C. difficile 23828 (FR, fidaxomicin-resistant), Table 7, read-out: MIC
  MIC: > 8 µg/mL
C. difficile; Clostridioides difficile, C. difficile 23828, clinical isolate resistant to FDX, Table 1, read-out: MIC
  MIC: > 8 µg/mL
C. difficile; Clostridioides difficile, C. difficile 23828, Table 9, read-out: MIC
  MIC: > 8 µg/mL
C. difficile; Clostridioides difficile, C. difficile 24531 (VR, vancomycin-resistant), Table 7, read-out: MIC
  MIC: 0.01 µg/mL (≈ 0.00945 µM)
C. difficile; Clostridioides difficile, C. difficile 24531, Table 9, read-out: MIC
  MIC: 0.01 µg/mL (≈ 0.00945 µM)
C. difficile; Clostridioides difficile, C. difficile 24923 (VR, vancomycin-resistant), Table 7, read-out: MIC
  MIC: 0.0625 µg/mL (≈ 0.0591 µM)
C. difficile; Clostridioides difficile, C. difficile 24923, Table 9, read-out: MIC
  MIC: 0.06 µg/mL (≈ 0.0567 µM)
C. difficile; Clostridioides difficile, C. difficile 26675 (MR, metronidazole-resistant), Table 7, read-out: MIC
  MIC: 4 µg/mL (≈ 3.78 µM)
C. difficile; Clostridioides difficile, C. difficile 26675, clinical isolate resistant to MTZ, Table 1, read-out: MIC
  MIC: 4 µg/mL (≈ 3.78 µM)
C. difficile; Clostridioides difficile, C. difficile 26675, Table 9, read-out: MIC
  MIC: 4 µg/mL (≈ 3.78 µM)
C. difficile; Clostridioides difficile, C. difficile 27081 (FR, fidaxomicin-resistant), Table 7, read-out: MIC
  MIC: > 8 µg/mL
C. difficile; Clostridioides difficile, C. difficile 27081, Table 9, read-out: MIC
  MIC: > 8 µg/mL
C. difficile; Clostridioides difficile, C. difficile 27173 (MR, metronidazole-resistant), Table 7, read-out: MIC
  MIC: 0.01 µg/mL (≈ 0.00945 µM)
C. difficile; Clostridioides difficile, C. difficile 27173, Table 9, read-out: MIC
  MIC: 0.01 µg/mL (≈ 0.00945 µM)
C. difficile; Clostridioides difficile, C. difficile HM-88, Table 9, read-out: MIC
  MIC: 0.03 µg/mL (≈ 0.0284 µM)
C. difficile; Clostridioides difficile, C. difficile HM-89, Table 9, read-out: MIC
  MIC: 0.03 µg/mL (≈ 0.0284 µM)
C. difficile; Clostridioides difficile, C. difficile HM-746, Table 9, read-out: MIC
  MIC: ≤ 0.03 µg/mL
C. difficile; Clostridioides difficile, C. difficile HM-747, Table 9, read-out: MIC
  MIC: 0.06 µg/mL (≈ 0.0567 µM)
C. difficile; Clostridioides difficile, C. difficile NR49292, Table 7, read-out: MIC
  MIC: 0.5 µg/mL (≈ 0.473 µM)
C. difficile; Clostridioides difficile, C. difficile NR49292, Table 9, read-out: MIC
  MIC: 0.5 µg/mL (≈ 0.473 µM)
C. difficile; Clostridioides difficile, C. difficile NR49294, Table 7, read-out: MIC
  MIC: 0.01 µg/mL (≈ 0.00945 µM)
C. difficile; Clostridioides difficile, C. difficile NR49294, Table 9, read-out: MIC
  MIC: 0.01 µg/mL (≈ 0.00945 µM)
C. difficile; Clostridioides difficile, C. difficile NR49302, Table 7, read-out: MIC
  MIC: 0.03 µg/mL (≈ 0.0284 µM)
C. difficile; Clostridioides difficile, C. difficile NR49302, Table 9, read-out: MIC
  MIC: 0.03 µg/mL (≈ 0.0284 µM)
C. difficile; Clostridioides difficile, C. difficile NR49305, Table 7, read-out: MIC
  MIC: 0.01 µg/mL (≈ 0.00945 µM)
C. difficile; Clostridioides difficile, C. difficile NR49305, Table 9, read-out: MIC
  MIC: 0.01 µg/mL (≈ 0.00945 µM)
C. difficile; Clostridioides difficile, C. difficile NR49310, Table 7, read-out: MIC
  MIC: ≤ 0.01 µg/mL
C. difficile; Clostridioides difficile, C. difficile NR49310, Table 9, read-out: MIC
  MIC: ≤ 0.01 µg/mL
C. difficile; Clostridioides difficile, C. difficile NR-13427, Table 9, read-out: MIC
  MIC: 0.03 µg/mL (≈ 0.0284 µM)
C. difficile; Clostridioides difficile, C. difficile NR-13428, Table 9, read-out: MIC
  MIC: ≤ 0.03 µg/mL
C. difficile; Clostridioides difficile, C. difficile NR-13429, Table 9, read-out: MIC
  MIC: 0.25 µg/mL (≈ 0.236 µM)
C. difficile; Clostridioides difficile, C. difficile NR-13430, Table 9, read-out: MIC
  MIC: ≤ 0.03 µg/mL
C. difficile; Clostridioides difficile, C. difficile NR-13434, Table 9, read-out: MIC
  MIC: 0.06 µg/mL (≈ 0.0567 µM)
C. difficile; Clostridioides difficile, C. difficile NR-13435, Table 9, read-out: MIC
  MIC: ≤ 0.03 µg/mL
C. difficile; Clostridioides difficile, C. difficile NR-13437, Table 9, read-out: MIC
  MIC: 0.25 µg/mL (≈ 0.236 µM)
C. difficile; Clostridioides difficile, C. difficile NR-13438, Table 9, read-out: MIC
  MIC: 0.06 µg/mL (≈ 0.0567 µM)
